In patent US8304384B2, “Caspase-8 and inflammation, infection and wound healing” (Yeda Research and Development Co., Ltd, priority 2006, dated 2012):
“Also recorded” adds a separate entry of the source.

Key:
[1] = test system: Kupffer cells; details: stated as a known fact, no experiment of the patent described; cited from earlier work
[2] = test system: Kupffer cells; experiment: Gadolinium chloride treatment after partial hepatectomy (PHx) in Casp8F/-:Alb-Cre mice; type: in vivo; details: 1/3 PHx, 10 mg/kg i.p. on days 10 and 12 after PHx
Procedure: (iii) Partial Hepatectomy and Gadolinium Chloride Administration. Age-matched Casp8^F/−: Alb-Cre mice and Casp8^F/+: Alb-Cre mice were lightly anesthetized with intraperitoneally (i.p.) administered xylazine […] (Chanelle Pharmaceuticals Manufacturing, Loughrea, Galway, Ireland) and ketamine […] (Fort Dodge Animal Health, Fort Dodge, Iowa). It was performed ‘one-third’ (30%) PHx by excising the median lobe of the liver, and ‘two-thirds’ (70%) PHx by excising the median, left, and right upper lobes as described (Higgins et al., 1931 and Greene et al., 2003). Mice were imaged before PHx and afterwards on days 0-56 (every other day during the first week and weekly from then on). On days 10 and 12 after PHx the mice were injected i.p. with gadolinium chloride (Sigma-Aldrich, St. Louis, Mo.) in saline at a dosage of 10 mg/kg.
(iv) MRI Analysis Technique. Magnetic resonance imaging (MRI) experiments were performed using a horizontal 4.7 T Biospec spectrometer (Bruker Medical, Ettlingen, Germany) with a 4.2-cm birdcage coil. Mice were anesthetized (with pentobarbital 30 mg/kg, i.p.) and placed supine with the liver located at the center of the coil. Liver volume was determined from multi-slice coronal and axial T1-weighted spin echo images (repetition time=400 ms; echo time=18 ms; slice thickness=1 mm). In brief, the liver boundary visualized in each slice was outlined using image-processing software (NIH Image). […] The total liver volume was calculated as the summed area of all slices, multiplied by the slice thickness. For each mouse the liver volume was expressed as a percentage of the preoperative liver volume. […]
Cells expressing F4/80 were detected similarly, using rat anti-mouse F4/80 antibody (Serotec Oxford, UK), except that for antigen retrieval the paraffin sections were treated for 3 minutes at room temperature with a solution containing 20 mM Tris (pH 7.5), 0.1% trypsin, and 0.1% calcium chloride. The macrophage content of the livers was determined by quantifying the F4/80 positive areas in the slides using the ImageJ 1.37r software.

Compound: [Cl][Gd]([Cl])[Cl] [gadolinium chloride]
- hepatocyte proliferation facilitated early after PHx [1]: does not decrease, but rather is enhanced
- late (delayed) hepatocyte proliferation, anti-Ki67 stained nuclei in 10 high-power fields ([2]; 14th day after PHx, 10 mg/kg): practically wiped out the increase in hepatocyte proliferation; also recorded: arrest of the delayed hepatocyte proliferation
- liver volume / excessive increase in liver size (hepatomegaly), MRI scans ([2]; 14th day after PHx, 10 mg/kg): curtailed; also recorded: prevention of hepatomegaly
- inflammatory cells (macrophages, anti-F4/80 staining) accumulated in the liver ([2]; liver examined 14 days after PHx): substantially decreasing the inflammatory cells that had accumulated
